Test results from the NIST ThermoML archive (doi:10.1016/j.fluid.2016.12.017).

Assay: mean ionic activity coefficient (dimensionless); mn = molality of the nth substance listed, in mol/kg
Details: 101 kPa, Liquid, galvanic cell

CCn1cc[n+](C)c1.[Br-] [1-ethyl-3-methylimidazolium bromide] + O
mean ionic activity coefficient
Details	298.2 K	308.2 K
m1 = 0.01	0.888	0.895
m1 = 0.0199	0.846	0.859
m1 = 0.0397	0.791	0.813
m1 = 0.0592	0.753	0.781
m1 = 0.0785	0.723	0.757
m1 = 0.1001	0.696	0.735
m1 = 0.1995	0.611	0.665
m1 = 0.3996	0.523	0.585
m1 = 0.6004	0.474	0.534
m1 = 0.7996	0.441	0.497
m1 = 1.001	0.417	0.467
m1 = 1.2	0.398	0.442
m1 = 1.4	0.382	0.42
m1 = 1.6	0.367	0.4
m1 = 1.8	0.354	0.382
m1 = 2	0.341	0.366
m1 = 2.2	–	0.351
